Assay results published in ChEMBL document CHEMBL1201862, “PubChem BioAssay data set” (2004).
Calls of active or inactive are those of the source.

Experiments:
Type in all cases: functional
[1] = molecular target: T1, High affinity choline transporter 1 (Homo sapiens, UniProt Q9GZV3); assay: human choline transporter blockers, potency – cell-based, 10-point CRC, membrane potential dye, dose response (AID 588401);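 also: membrane potential dye fluorescence of choline-evoked depolarization via CHT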
T1 sequence (Q9GZV3 whole entry): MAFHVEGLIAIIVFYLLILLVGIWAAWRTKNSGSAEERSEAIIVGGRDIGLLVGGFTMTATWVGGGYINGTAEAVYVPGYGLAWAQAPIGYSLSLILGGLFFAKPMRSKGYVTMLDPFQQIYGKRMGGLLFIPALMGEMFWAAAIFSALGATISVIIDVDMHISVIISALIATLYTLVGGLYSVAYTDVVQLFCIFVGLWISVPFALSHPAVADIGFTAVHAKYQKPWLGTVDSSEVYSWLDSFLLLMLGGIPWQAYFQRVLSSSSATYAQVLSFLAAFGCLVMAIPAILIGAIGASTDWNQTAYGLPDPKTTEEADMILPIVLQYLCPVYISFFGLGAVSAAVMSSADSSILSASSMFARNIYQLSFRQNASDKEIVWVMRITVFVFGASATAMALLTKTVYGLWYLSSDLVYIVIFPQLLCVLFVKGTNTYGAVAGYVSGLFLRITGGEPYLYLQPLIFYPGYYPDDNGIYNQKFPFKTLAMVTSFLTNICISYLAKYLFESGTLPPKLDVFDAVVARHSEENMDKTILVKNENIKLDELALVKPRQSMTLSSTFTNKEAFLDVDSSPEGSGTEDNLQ

[2] = molecular target: T1, High affinity choline transporter 1; assay: human choline transporter blockers, potency – cell-based, 5-point CRC, membrane potential dye, dose response (AID 504840)
[3] = molecular target: T1, High affinity choline transporter 1; assay: human choline transporter radiolabel uptake blockers – cell-based, 3H-choline uptake, CHT LV-AA trafficking mutant, CRC, dose response (AID 602208)

Measured: IC50

COc1ccc(C(=O)NCc2nc(C)c(C)s2)cc1OC1CCN(C(C)C)CC1
active: [1] 761 nM | [2] 1320 nM | [3] 303 nM
